Tests used:
[1] = Stability determination of amidite in solvent after 24 hours (HPLC-MS, UV 254 nm); assay type: physicochemical; conditions: for Stability at 24 hours: room temperature, grades 1-3, key not given
Protocol: (§1) To a 1.5 mL vial was added 0.013 mmol of amidite after which the solid material was dissolved in 0.13 mL of solvent. Hereafter, the vial was capped, vortexed, and finally left at room temperature for 24 hours. Then, the dissolved material was visually examined regarding the solubility (FIG. 1). If the solution appeared cloudy or otherwise non-homogenous the solubility was set to “no”.
Stability Determination Method: To complete the analysis the stability of the amidite was investigated using an Agilent 1100 series HPLC-MS with from the following specifications:
Column: Waters XTerra, MS C-18, 5 μm, 2.1×100 mm
Eluent: A: 0.1% sat. NH4OH (aq) in H2O B: 20% A in CH3CN
The mass and UV peak of the mother compound was identified at 0 hours and at 24 hours. Hereafter, the relative stability compared to other by-products was reported by integrating the UV chromatogram (254 nm) and normalizing the area to the chromatogram recorded at 0 hours (FIG. 2).

[2] = Solubility of amidite in solvent, visual examination; assay type: physicochemical
Protocol: To investigate the stability and solubility of L-LNA G-DMF and L-LNA G-i-Bu the following experimental procedure was followed:
as §1

Compound	Stability at 24 hours ([1]; solvent DMF)	Stability at 24 hours ([1]; solvent DMSO)	Stability at 24 hours ([1]; solvent Dioxane)	Stability at 24 hours ([1]; solvent MeCN:Acetone (1:1))	Stability at 24 hours ([1]; solvent MeCN:DCE (1:1))	Stability at 24 hours ([1]; solvent MeCN:DCM (1:1))	Stability at 24 hours ([1]; solvent MeCN:Toluene (1:1))	Stability at 24 hours ([1]; solvent MeCN)	Stability at 24 hours ([1]; solvent THE)	Stability at 24 hours ([1]; solvent Toluene)	Stability at 24 hours ([1]; solvent DCE)	Stability at 24 hours ([1]; solvent DCM)	Stability at 24 hours ([1]; solvent NMP)	solubility in most solvents (side by side comparison) ([2]; most solvents)	stability in most solvents (side by side comparison) ([1]; most solvents)	solubility in all solvents investigated ([2]; all solvents investigated (12 different))	improvement in stability ([1]; all solvents investigated)
COc1ccc(C(OCC2OC(n3cnc4c(=O)[nH]c(N=CN(C)C)nc43)CC2OP2OC(c3ccccc3)C3CCCN32)(c2ccccc2)c2ccc(OC)cc2)cc1 [D-DNA G-DMF]	3	3	2	3	3	3	3	3	3	3	–	–	–	–	–	–	–
COc1ccc(C(OCC2OC(n3cc(C)c(=O)[nH]c3=O)CC2OP2OC(c3ccccc3)C3CCCN32)(c2ccccc2)c2ccc(OC)cc2)cc1 [D-DNA T-DMF]	3	3	1	2	3	3	3	3	1	3	1	1	3	–	–	–	–
COc1ccc(C(OCC23COC(C(n4cnc5c(=O)[nH]c(N=CN(C)C)nc54)O2)C3OP2OC(c3ccccc3)C3CCCN32)(c2ccccc2)c2ccc(OC)cc2)cc1 [D-LNA G-DMF]	1	1	1	2	1	1	3	1	2	3	1	1	3	soluble	stable	–	–
COc1ccc(C(OCC23COC(C(n4cc(C)c(=O)[nH]c4=O)O2)C3OP2OC(c3ccccc3)C3CCCN32)(c2ccccc2)c2ccc(OC)cc2)cc1 [D-LNA T-DMF]	2	3	2	2	1	1	3	1	1	3	1	1	3	–	–	–	–
COc1ccc(C(OCC2OC(n3cnc4c(=O)[nH]c(N=CN(C)C)nc43)CC2OP2OC(c3ccccc3)C3CCCN32)(c2ccccc2)c2ccc(OC)cc2)cc1 [L-DNA G-DMF]	3	3	2	3	3	3	3	2	3	3	–	–	–	–	–	–	–
COc1ccc(C(OCC2OC(n3cc(C)c(=O)[nH]c3=O)CC2OP2OC(c3ccccc3)C3CCCN32)(c2ccccc2)c2ccc(OC)cc2)cc1 [L-DNA T-DMF]	3	3	1	3	3	3	3	3	2	3	1	1	3	–	–	–	–
COc1ccc(C(OC[C@@]23CO[C@@H]([C@H](n4cnc5c(=O)[nH]c(NC(=O)C(C)C)nc54)O2)[C@@H]3O[P@]2O[C@H](c3ccccc3)[C@@H]3CCCN32)(c2ccccc2)c2ccc(OC)cc2)cc1 [L-LNA G-iBu, N-(9-((1R,3R,4R,7S)-1-((bis(4-methoxyphenyl)(phenyl)methoxy)methyl)-7-(((1R,3R,3aS)-3-phenyltetrahydro-1H,3H-pyrrolo[1,2-c][1,3,2]oxazaphosphol-1-yl)oxy)-2,5-dioxabicyclo[2.2.1]heptan-3-yl)-6-oxo-6,9-dihydro-1H-purin-2-yl)isobutyramide]	3	3	1	2	2	2	3	2	2	3	2	2	–	–	–	soluble	significant improvement
COc1ccc(C(OCC23COC(C(n4cc(C)c(=O)[nH]c4=O)O2)C3OP2OC(c3ccccc3)C3CCCN32)(c2ccccc2)c2ccc(OC)cc2)cc1 [L-LNA T-DMF]	1	2	1	2	1	1	3	1	1	3	1	1	2	–	–	–	–
